Results taken from patent US20250188084A1, “COMPOUNDS AND METHODS FOR MODULATING CDK9 ACTIVITY” (KRONOS BIO, INC., priority 2020, published 2025).

Molecular target: T1, CDK9 (Homo sapiens, UniProt P50750)
T1 construct: NCIH211 cells with endogenously tagged N-terminal CDK9-HiBit; endogenous in cells; host or cells: NCIH211 cells (endogenous CDK9 locus tagged with HiBit)
Assay: CDK9 degradation by HiBit assay, NCIH211 cells
Type: cell-based
Details: NCIH211 cells with endogenously tagged N-terminal CDK9-HiBit, 24 hours incubation; read-out: HiBit-NCIH211.2 DC50
Protocol: Exemplary compounds of the invention were tested for degradation of CDK9. The compounds were tested in 10-dose DC50 duplicate mode with a 3-fold serial dilution starting at 10 μM by HiBit assay (Promega, Inc) as a direct measurement of CDK9 presence, with incubation time of 24 hours using either NCIH211 cells with endogenously tagged N-terminal CDK9-HiBit or NCIH1048 cells with endogenously tagged N-terminal CDK9-HiBit. A control compound (THAL-SNS-032, CAS 2139287-33-3) was tested in 10-dose DC50 mode with 3-fold serial dilution starting at 10 μM. Data was normalized to positive (medium only) and negative (cells with no treatment) controls and curve fits were analyzed with CDK9 as % response vs. log [compound concentration] using a 4-parameter logistic model by GraphPad software. For Table 2: A is <100, B is <1000 C is <10,000, D is >10,000 and ND is Not Determined.

T1 sequence (P50750 whole entry): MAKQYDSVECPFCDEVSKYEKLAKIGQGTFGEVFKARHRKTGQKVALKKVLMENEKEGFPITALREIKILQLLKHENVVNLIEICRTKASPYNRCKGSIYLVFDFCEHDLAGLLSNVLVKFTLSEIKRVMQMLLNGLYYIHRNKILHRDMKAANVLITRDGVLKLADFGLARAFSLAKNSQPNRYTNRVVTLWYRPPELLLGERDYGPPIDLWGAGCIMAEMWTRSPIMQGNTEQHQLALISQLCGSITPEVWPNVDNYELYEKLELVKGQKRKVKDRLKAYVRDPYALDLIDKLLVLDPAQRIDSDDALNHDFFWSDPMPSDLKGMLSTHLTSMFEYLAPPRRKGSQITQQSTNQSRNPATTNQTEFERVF
T1 sequence (O60563 whole entry partner): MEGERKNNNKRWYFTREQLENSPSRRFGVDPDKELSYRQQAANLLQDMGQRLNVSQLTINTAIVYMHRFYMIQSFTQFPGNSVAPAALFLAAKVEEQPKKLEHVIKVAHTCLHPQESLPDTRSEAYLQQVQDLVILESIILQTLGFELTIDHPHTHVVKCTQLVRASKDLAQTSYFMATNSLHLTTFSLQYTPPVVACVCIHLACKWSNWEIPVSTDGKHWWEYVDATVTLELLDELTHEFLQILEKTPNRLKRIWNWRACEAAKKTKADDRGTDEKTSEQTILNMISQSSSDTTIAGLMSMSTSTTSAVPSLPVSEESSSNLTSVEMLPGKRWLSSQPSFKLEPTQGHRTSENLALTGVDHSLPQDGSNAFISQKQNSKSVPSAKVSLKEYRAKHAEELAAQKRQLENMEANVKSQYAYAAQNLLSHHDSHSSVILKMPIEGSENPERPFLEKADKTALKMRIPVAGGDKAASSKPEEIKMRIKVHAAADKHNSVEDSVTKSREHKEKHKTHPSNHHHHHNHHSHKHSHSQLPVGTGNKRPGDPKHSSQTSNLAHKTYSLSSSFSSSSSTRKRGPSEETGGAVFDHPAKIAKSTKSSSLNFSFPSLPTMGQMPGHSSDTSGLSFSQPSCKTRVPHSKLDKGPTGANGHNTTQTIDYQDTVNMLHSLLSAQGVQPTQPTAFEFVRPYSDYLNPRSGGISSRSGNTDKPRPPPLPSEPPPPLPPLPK

SMILES	DC50 [µM]
CCC(CC)c1cc(N[C@H]2CC[C@H](NC(=O)COCCOCCNC(=O)COc3cccc4c3C(=O)N(C3CCC(=O)NC3=O)C4=O)C2)n2nccc2n1 (stereo partly drawn) [Compound 1.0, 2-[2-[2-[[2-[2-(2,6-dioxo-3-piperidyl)-1,3-dioxo-isoindolin-4 yl]oxyacetyl]amino]ethoxy]ethoxy]-N-[(1S,3S)-3-[[5-(1-ethylpropyl)pyrazolo[1,5-a]pyrimidin-7-yl]amino]cyclopentyl]acetamide]	> 10
CCC(CC)c1cc(N[C@H]2CC[C@H](NC(=O)COCCOCCOCCNC(=O)COc3cccc4c3C(=O)N(C3CCC(=O)NC3=O)C4=O)C2)n2nccc2n1 (stereo partly drawn) [Compound 2.0, 2-[2-[2-[2-[[2-[2-(2,6-dioxo-3-piperidyl)-1,3-dioxo-isoindolin-4-yl]oxyacetyl]amino]ethoxy]ethoxy]ethoxy]-N-[(1S,3S)-3-[[5-(1-ethylpropyl)pyrazolo[1,5-a]pyrimidin-7-yl]amino]cyclopentyl]acetamide]	> 10
CCC(CC)c1cc(N[C@H]2CC[C@H](NC(=O)COCCOCCOCCNC(=O)COc3cccc4c3C(=O)N(C3CCC(=O)NC3=O)C4=O)C2)n2ncc(Cl)c2n1 (stereo partly drawn) [Compound 3.0, N-[(1S,3S)-3-[[3-chloro-5-(1-ethylpropyl)pyrazolo[1,5-a]pyrimidin-7-yl]amino]cyclopentyl]-2-[2-[2-[2-[[2-[2-(2,6-dioxo-3-piperidyl)-1,3-dioxo-isoindolin-4-yl]oxyacetyl]amino]ethoxy]ethoxy]ethoxy]acetamide]	> 10
CCC(CC)c1cc(N[C@H]2CC[C@H](NC(=O)COCCOCCNC(=O)COc3cccc4c3C(=O)N(C3CCC(=O)NC3=O)C4=O)C2)n2ncc(Cl)c2n1 (stereo partly drawn) [Compound 4.0, N-[(1S,3S)-3-[[3-chloro-5-(1-ethylpropyl)pyrazolo[1,5-a]pyrimi-din-7-yl]amino]cyclopentyl]-2-[2-[2-[[2-[2-(2,6-dioxo-3-piperidyl)-1,3-dioxo-isoindolin-4-yl]oxyacetyl]amino]ethoxy]ethoxy]acetamide]	> 10
CCC(CC)c1cc(N[C@H]2CC[C@H](NCCOCCOCCOCCNc3cccc4c3C(=O)N(C3CCC(=O)NC3=O)C4=O)C2)n2nccc2n1 (stereo partly drawn) [Compound 7.0, 2-(2,6-dioxo-3-piperidyl)-4-[2-[2-[2-[2-[[(1S,3S)-3-[[5-(1-ethylpropyl)pyrazolo[1,5-a]pyrimidin-7-yl]amino]cyclopentyl]amino]ethoxy]ethoxy]ethoxy]ethylamino]isoindoline-1,3-dione]	> 10
CCC(CC)c1cc(N[C@H]2CC[C@H](NCCOCCOCCOCCOCCNc3cccc4c3C(=O)N(C3CCC(=O)NC3=O)C4=O)C2)n2nccc2n1 (stereo partly drawn) [Compound 8.0, 2-(2,6-dioxo-3-piperidyl)-4-[2-[2-[2-[2-[2-[[(1S,3S)-3-[[5-(1-ethylpropyl)pyrazolo[1,5-a]pyrimidin-7-yl]amino]cyclopentyl]amino]ethoxy]ethoxy]ethoxy]ethoxy]ethylamino]isoindoline-1,3-dione]	> 10
CCC(CC)c1cc(N[C@H]2CC[C@H](NCc3cn(CCOCCOCCNc4cccc5c4C(=O)N(C4CCC(=O)NC4=O)C5=O)nn3)C2)n2nccc2n1 (stereo partly drawn) [Compound 9.0, 2-(2,6-dioxo-3-piperidyl)-4-[2-[2-[2-[4-[[[(1S,3S)-3-[[5-(1-ethylpropyl)pyrazolo[1,5-a]pyrimidin-7-yl]amino]cyclopentyl]amino]methyl]triazol-1-yl]ethoxy]ethoxy]ethylamino]isoindoline-1,3-dione]	< 10

The remaining lines, values ahead:

DC50 [µM]	SMILES
< 10	CCC(CC)c1cc(N[C@H]2CC[C@H](NCc3cn(CCOCCOCCOCCNc4cccc5c4C(=O)N(C4CCC(=O)NC4=O)C5=O)nn3)C2)n2nccc2n1 (stereo partly drawn) [Compound 10.0, 2-(2,6-dioxo-3-piperidyl)-4-[2-[2-[2-[2-[4-[[[(1S,3S)-3-[[5-(1-ethylpropyl)pyrazolo[1,5-a]pyrimidin-7-yl]amino]cyclopentyl]amino]methyl]triazol-1-yl]ethoxy]ethoxy]ethoxy]ethylamino]isoindoline-1,3-dione]
< 10	CCC(CC)c1cc(N[C@H]2CC[C@H](NCCOCCOCCOCCNc3cccc4c3C(=O)N(C3CCC(=O)NC3=O)C4=O)C2)n2ncc(Cl)c2n1 (stereo partly drawn) [Compound 11.0, 2-(2,6-dioxo-3-piperidyl)-4-[2-[2-[2-[2-[[(1S,3S)-3-[[3-chloro-5-(1-ethylpropyl)pyrazolo[1,5-a]pyrimidin-7-yl]amino]cyclopentyl]amino]ethoxy]ethoxy]ethoxy]ethylamino]isoindoline-1,3-dione]
> 10	CCC(CC)c1cc(N[C@H]2CC[C@H](NCCOCCOCCOCCn3cc(CNc4cccc5c4C(=O)N(C4CCC(=O)NC4=O)C5=O)nn3)C2)n2nccc2n1 (stereo partly drawn) [Compound 12.0, 2-(2,6-dioxo-3-piperidyl)-4-[[1-[2-[2-[2-[2-[[(1S,3S)-3-[[5-(1-ethylpropyl)pyrazolo[1,5-a]pyrimidin-7-yl]amino]cyclopentyl]amino]ethoxy]ethoxy]ethoxy]ethyl]triazol-4-yl]methylamino]isoindoline-1,3-dione]
< 10	CCC(CC)c1cc(N[C@H]2CC[C@H](NCCOCCOCCOCCOCCNc3cccc4c3C(=O)N(C3CCC(=O)NC3=O)C4=O)C2)n2ncc(Cl)c2n1 (stereo partly drawn) [Compound 13.0, 4-[2-[2-[2-[2-[2-[[(1S,3S)-3-[[3-chloro-5-(1-ethylpropyl)pyrazolo[1,5-a]pyrimidin-7-yl]amino]cyclopentyl]amino]ethoxy]ethoxy]ethoxy]ethoxy]ethylamino]-2-(2,6-dioxo-3-piperidyl)isoindoline-1,3-dione]
> 10	CCC(CC)c1cc(N[C@H]2CC[C@H](NCCOCCOCCn3cc(COCCOCC(=O)N[C@H](C(=O)N4C[C@H](O)C[C@H]4C(=O)NCc4ccc(-c5scnc5C)cc4)C(C)(C)C)nn3)C2)n2nccc2n1 [Compound 14.0, (2S,4R)-4-hydroxy-N-[[4-(4-methylthiazol-5-yl)phenyl]methyl]-1-[(2S)-3,3-dimethyl-2-[[2-[2-[[1-[2-[2-[2-[[(1S,3S)-3-[[5-(1-ethylpropyl)pyrazolo[1,5-a]pyrimidin-7-yl]amino]cyclopentyl]amino]ethoxy]ethoxy]ethyl]triazol-4-yl]methoxy]ethoxy]acetyl]amino]butanoyl]pyrrolidine-2-carboxamide]
< 10	CCC(CC)c1cc(N[C@H]2CC[C@H](NCCOCCOCCn3cc(CNc4cccc5c4C(=O)N(C4CCC(=O)NC4=O)C5=O)nn3)C2)n2ncc(Cl)c2n1 (stereo partly drawn) [Compound 15.0]
> 10	CCC(CC)c1cc(N[C@H]2CC[C@H](NCCOCCOCCOCCn3cc(CNc4cccc5c4C(=O)N(C4CCC(=O)NC4=O)C5=O)nn3)C2)n2ncc(Cl)c2n1 (stereo partly drawn) [Compound 16.0]
< 10	CCC(CC)c1cc(N[C@H]2CC[C@H](NCC(C)N3CCN(CCNc4cccc5c4C(=O)N(C4CCC(=O)NC4=O)C5=O)CC3)C2)n2nccc2n1 (stereo partly drawn) [Compound 17.0, 2-(2,6-dioxo-3-piperidyl)-4-[2-[4-[2-[[(1S,3S)-3-[[5-(1-ethylpropyl)pyrazolo[1,5-a]pyrimidin-7-yl]amino]cyclopentyl]amino]-1-methyl-ethyl]piperazin-1-yl]ethylamino]isoindoline-1,3-dione]
